Source: the NIST ThermoML archive (doi:10.1016/j.jct.2014.05.020)
Numbers after ± are expanded uncertainties.

Test: excess molar enthalpy (molar enthalpy of mixing); xn = mol fraction of the nth substance listed
Settings: Liquid, Flow calorimetry

## CCO [ethanol] + O
423.2 K, 5000 kPa, x2 = 0.1473
  excess molar enthalpy: 0.393 ± 0.015 kJ/mol
423.2 K, 5000 kPa, x2 = 0.2673
  excess molar enthalpy: 0.666 ± 0.014 kJ/mol
423.2 K, 5000 kPa, x2 = 0.4508
  excess molar enthalpy: 0.901 ± 0.014 kJ/mol
423.2 K, 5000 kPa, x2 = 0.5845
  excess molar enthalpy: 0.91 ± 0.014 kJ/mol
423.2 K, 5000 kPa, x2 = 0.6864
  excess molar enthalpy: 0.818 ± 0.013 kJ/mol
423.2 K, 5000 kPa, x2 = 0.7665
  excess molar enthalpy: 0.685 ± 0.012 kJ/mol
423.2 K, 5000 kPa, x2 = 0.8312
  excess molar enthalpy: 0.535 ± 0.012 kJ/mol
423.2 K, 5000 kPa, x2 = 0.8845
  excess molar enthalpy: 0.384 ± 0.011 kJ/mol
423.2 K, 5000 kPa, x2 = 0.9292
  excess molar enthalpy: 0.238 ± 0.011 kJ/mol
423.2 K, 5000 kPa, x2 = 0.9673
  excess molar enthalpy: 0.107 ± 0.011 kJ/mol
423.2 K, 15000 kPa, x2 = 0.1466
  excess molar enthalpy: 0.384 ± 0.016 kJ/mol
423.2 K, 15000 kPa, x2 = 0.2662
  excess molar enthalpy: 0.653 ± 0.018 kJ/mol
423.2 K, 15000 kPa, x2 = 0.4493
  excess molar enthalpy: 0.898 ± 0.019 kJ/mol
423.2 K, 15000 kPa, x2 = 0.5831
  excess molar enthalpy: 0.911 ± 0.019 kJ/mol
423.2 K, 15000 kPa, x2 = 0.6851
  excess molar enthalpy: 0.825 ± 0.018 kJ/mol
423.2 K, 15000 kPa, x2 = 0.7655
  excess molar enthalpy: 0.695 ± 0.018 kJ/mol
423.2 K, 15000 kPa, x2 = 0.8304
  excess molar enthalpy: 0.545 ± 0.018 kJ/mol
423.2 K, 15000 kPa, x2 = 0.8839
  excess molar enthalpy: 0.392 ± 0.019 kJ/mol
423.2 K, 15000 kPa, x2 = 0.9289
  excess molar enthalpy: 0.244 ± 0.019 kJ/mol
423.2 K, 15000 kPa, x2 = 0.9671
  excess molar enthalpy: 0.11 ± 0.019 kJ/mol
523.2 K, 15000 kPa, x2 = 0.1466
  excess molar enthalpy: 0.787 ± 0.027 kJ/mol
523.2 K, 15000 kPa, x2 = 0.2662
  excess molar enthalpy: 1.27 ± 0.02 kJ/mol
523.2 K, 15000 kPa, x2 = 0.4493
  excess molar enthalpy: 1.68 ± 0.019 kJ/mol
523.2 K, 15000 kPa, x2 = 0.5831
  excess molar enthalpy: 1.72 ± 0.024 kJ/mol
523.2 K, 15000 kPa, x2 = 0.6851
  excess molar enthalpy: 1.56 ± 0.032 kJ/mol
523.2 K, 15000 kPa, x2 = 0.7655
  excess molar enthalpy: 1.35 ± 0.041 kJ/mol
523.2 K, 15000 kPa, x2 = 0.8304
  excess molar enthalpy: 1.09 ± 0.05 kJ/mol
523.2 K, 15000 kPa, x2 = 0.8839
  excess molar enthalpy: 0.828 ± 0.06 kJ/mol
523.2 K, 15000 kPa, x2 = 0.9289
  excess molar enthalpy: 0.548 ± 0.072 kJ/mol
523.2 K, 15000 kPa, x2 = 0.9671
  excess molar enthalpy: 0.265 ± 0.099 kJ/mol
